Marks after values point to notes of the source that are not given here.
Assay: UV absorption spectra measured in solution
Format: physicochemical
Text: In the case of a write-once optical data carrier according to the invention which is written on and read by means of the light of a blue laser, preference is given to merocyanine dyes whose absorption maximum λmax1 is in the range from 340 to 410 nm, […] half of the […] one tenth of the absorbance value at λmax1 are preferably not more than 50 nm apart. Such a merocyanine dye preferably has no longer-wavelength maximum λmax2 up to a wavelength of 500 nm, particularly preferably up to 550 nm, very particularly preferably up to 600 nm.
The absorption spectra are measured, for example, in solution.
Suitable merocyanines having the required spectral properties are, in particular, those in which the dipole moment change Δμ=|μg−μag|, i.e. the positive difference between the dipole moments in the ground state and in the first excited state, is very small, preferably <5 D, particularly preferably <2 D. A method of determining such a dipole moment change Δμ is described, for example, in F. Würthner et al., Angew. Chem. 1997, 109, 2933, and in the literature cited therein. A low solvent-induced wavelength shift (dioxane/DMF) is likewise a suitable selection criterion. Preference is given to merocyanines whose solvent-induced wavelength shift Δλ=|λDMF−λdioxane|, i.e. the positive difference between the absorption wavelengths in the solvents dimethylformamide and dioxane, is <20 nm, particularly preferably <10 nm, very particularly preferably <5 nm

[1] = Table 2, on the long wavelength flank
[2] = Table 3, on the short wavelength flank

SMILES	ε (Table 2)	ε (Table 3)	λmax (Table 3, in dioxane)	also measured
CN1C(=CC=C(C#N)c2nc3ccccc3s2)C(C)(C)c2ccccc21 [Example 57]	57230 L/mol/cm			λmax (Table 2, in dioxane): 462 nm; λ1/2-λ1/10 (Table 2, on the short wavelength flank): 34^3) nm
COC(=O)c1ccc2c(c1)C(C)(C)C(=CC=C(C#N)[n+]1ccccc1)N2C.[O-][Cl+3]([O-])([O-])[O-] [Example 58]	36010 L/mol/cm			λmax (Table 2, in methanol): 459^5) nm
CCN1CCCC1=CC=C(C#N)[n+]1ccccc1.[O-][Cl+3]([O-])([O-])[O-] [Example 59]	24400 L/mol/cm			λmax (Table 2, in methanol): 462^5) nm
CCN1CCCC1=CC=C1SC(=S)N(CC)C1=O [Example 60]	75006 L/mol/cm			λmax (Table 2, in dioxane): 466 nm; λ1/2-λ1/10 [1]: 10^4) nm
CCN1C(=O)C(=CC=C2N(C)c3ccccc3C2(C)C)SC1=S [Example 61]	36610 L/mol/cm			λmax (Table 2, in methylene chloride): 512^6) nm; λ1/2-λ1/10 [1]: 25^4) nm; Δλ (Table 2, |λmethylene chloride-λmethanol|): 36^7) nm
CCOC(=O)C(C#N)=c1[nH]c(=O)c(=CC=C2N(C)c3ccccc3C2(C)C)c(C)c1C(=O)OCC [Example 64]				λmax (Table 2, in methanol): 577^5) nm
CCOC(=O)C(C#N)=c1[nH]c(=O)c(=CC=C2N(C)c3ccc(C(=O)OC)cc3C2(C)C)c(C)c1C(=O)OCC [Example 65]	142900 L/mol/cm			λmax (Table 2, in methanol): 587^5) nm
Cc1c(C#N)c(=C(C#N)C#N)[nH]c(=O)c1=CC=C1N(C)c2ccccc2C1(C)C [Example 66]				λmax (Table 2, in methanol): 546^5) nm
COC(=O)c1ccc2c(c1)C(C)(C)C(=CC=c1c(C)c(C#N)c(=C(C#N)C#N)[nH]c1=O)N2C [Example 67]	50900 L/mol/cm			λmax (Table 2, in methanol): 554^5) nm
CN(C=CC=C1C(=O)c2ccccc2C1=O)c1ccccc1 [Example 73]		84070 L/mol/cm	447 nm	
COc1ccc(N(C)C=CC=C2C(=O)NC(=O)C([n+]3ccccc3)=C2C)cc1.[O-][Cl+3]([O-])([O-])[O-] [Example 75]		62780 L/mol/cm		λmax (Table 3, in methanol): 469^5) nm
COC(=O)C(=CC=CN1CCOCC1)C(=O)OC [Example 78]			366 nm	
COC(=O)C(C#N)=CC=CN1CCOCC1 [Example 79]		62900 L/mol/cm	382 nm	
CCOC(=O)C(C#N)=c1[nH]c(=O)c(=CC=CN(C)C)c(C)c1C(=O)OCC [Example 85]				λmax (Table 3, in methanol): 509^5) nm

Now from value to compound, other results behind:

ε (Table 2)	ε (Table 3)	λmax (Table 3, in dioxane)	SMILES	also measured
110332 L/mol/cm			CCCCN1C(=O)C(=CC=C2N(C)c3ccc(C(=O)OC)cc3C2(C)C)C(=O)c2ccccc21 [Example 53]	λmax (Table 2, in dioxane): 500 nm
109380 L/mol/cm			CCCCN1C(=O)C(=CC=C2Oc3ccccc3N2CC)C(C)=C(C#N)C1=O [Example 55]	λmax (Table 2, in methylene chloride): 490^6) nm; Δλ (Table 2, |λDMF - λdioxane|): 5 nm
	77180 L/mol/cm	462 nm	CCCN1C(=O)C(=CC=CN(C)C)C(C)=C(C#N)C1=O [Example 68]	λ1/2-λ1/10 [2]: 28^3) nm; Δλ (Table 3, |λDMF-λdioxane|): 8 nm
	89100 L/mol/cm		CCCCN1C(=O)C(=CC=CN(C)C)C(C(F)(F)F)=C(C#N)C1=O [Example 71]	λmax (Table 3, in DMF): 564^6) nm
	79685 L/mol/cm	480 nm	CCCCN1C(=O)C(=CC=CN(C)c2ccccc2)C(C)=C(C#N)C1=O [Example 72]	Δλ (Table 3, |λDMF-λdioxane|): 1.3 nm
	73010 L/mol/cm	482 nm	CCCN1C(=O)C(=CC=CN(C)c2ccc(OC)cc2)C(C)=C(C#N)C1=O [Example 74]	Δλ (Table 3, |λDMF-λdioxane|): 4.3 nm
	89800 L/mol/cm	458 nm	C=C(C)C(=O)OCCN1C(=O)C(=CC=CN2CCOCC2)C(C)=C(C#N)C1=O [Example 76]	λ1/2-λ1/10 [2]: 28^3) nm
	119800 L/mol/cm	585 nm	CCN1C(=O)C(=CC=CC=CN(C)c2ccccc2)C(C)=C(C#N)C1=O [Example 80]	λ1/2-λ1/10 (Table 3, on the long wavelength flank): 28^4) nm
		337 nm	CCCN1C(=O)C(=CC(C)=CN(C)C)C(C)=C(C#N)C1=O [Example 83]	
	149800 L/mol/cm		CCN1C(=O)C(=CC=CC=CN(C)C)C(C)=C(C#N)C1=O [Example 84]	λmax (Table 3, in DMF): 552^6) nm

— patent US20030003396A1, “Optical data carrier comprising a merocyanine dye as light-absorbent compound in the information layer” (priority 2001, published 2003)
